# Where “and” joins values, the source holds several entries; their conditions need not be identical. Identical values can stand only once.
# What was measured:
# Experiment in all cases: ≥ marks a high value that may be exact or a test limit, other limits are often not marked, values filed in µg/mL are converted to µM
# [1] = system: Escherichia coli DH5alpha
# [2] = system: Klebsiella pneumoniae ATCC 10031
# [3] = system: Salmonella enterica subsp. enterica serovar Typhimurium ATCC 14028
# [4] = system: Enterococcus faecalis ATCC 29212
# [5] = system: Klebsiella pneumoniae ATCC 13883
# Bacillus subtilis 168 = system: Bacillus subtilis 168
# Escherichia coli B = system: Escherichia coli B
# Pseudomonas aeruginosa = system: Pseudomonas aeruginosa
# Staphylococcus aureus = system: Staphylococcus aureus
# [6] = system: Escherichia coli ATCC 25922
# Escherichia coli UB1005 = system: Escherichia coli UB1005
# [7] = system: Salmonella enterica subsp. enterica serovar Typhimurium C77-31
# [8] = system: Staphylococcus aureus ATCC 25923
# [9] = system: Staphylococcus aureus ATCC 29213
# [10] = system: Staphylococcus epidermidis ATCC 12228
# [11] = system: Pseudomonas aeruginosa ATCC 27853
# [12] = system: Staphylococcus aureus ATCC 43300
# Acinetobacter baumannii = system: Acinetobacter baumannii
# Klebsiella pneumoniae = system: Klebsiella pneumoniae
Structure (SMILES),MIC [3],MIC (Bacillus subtilis 168) [µM],MIC (Escherichia coli B) [µM],MIC (Pseudomonas aeruginosa) [µM],MIC (Staphylococcus aureus) [µM],MIC (Escherichia coli UB1005) [µM],MIC [7] [µM],MIC [8] [µM],MIC [10] [µM],also measured
CC[C@H](C)[C@@H]1NC(=O)[C@H](CCCCN)NC(=O)[C@@H](NC(=O)[C@@H](NC(=O)[C@@H](NC(=O)[C@@H](NC(=O)[C@@H]2CCCN2C(=O)[C@H](CC(C)C)NC(=O)[C@H](Cc2ccccc2)NC(=O)[C@H](CCCCN)NC(=O)[C@H](C)NC(=O)[C@H](C)NC(=O)[C@H](CC(C)C)NC(=O)[C@H](CCCCN)NC(=O)[C@H](CCCCN)NC(=O)[C@H](CC(C)C)NC(=O)[C@H](CC(C)C)NC(=O)[C@H](CCCCN)NC(=O)[C@H](CC(C)C)NC(=O)[C@@H](N)Cc2ccccc2)[C@@H](C)O)[C@@H](C)CC)[C@@H](C)CC)CSSC[C@@H](C(=O)O)NC(=O)[C@H](CCCCN)NC(=O)[C@H](Cc2ccc(O)cc2)NC(=O)[C@H](CO)NC1=O [FLKLLKKLAAKFLPTIICKISYKC],35.9 µM,,,,,,,,,MIC [1]: 18 µM; MIC [2]: ≥ 35.9 µM
CC[C@H](C)[C@H](NC(=O)CNC(=O)[C@H](CO)NC(=O)[C@H](CC(C)C)NC(=O)[C@@H](NC(=O)[C@H](CCCN=C(N)N)NC(=O)CNC(=O)[C@@H](NC(=O)[C@H](CC(C)C)NC(=O)[C@@H]1CCCN1C(=O)[C@H](CC(C)C)NC(=O)[C@@H](N)Cc1ccccc1)[C@@H](C)CC)C(C)C)C(=O)N[C@@H](CC(C)C)C(=O)NCC(=O)N[C@@H](Cc1c[nH]c2ccccc12)C(=O)N[C@@H](CCCCN)C(=O)N[C@@H](CCCN=C(N)N)C(=O)N[C@@H](CCCCN)C(=O)N[C@@H](CCCN=C(N)N)C(=O)N[C@@H](Cc1ccccc1)C(=O)NCC(N)=O [FLPLIGRVLSGILGWKRKRFG],5 µM and 10 µM,,,,,,,,,MIC [4]: 10 µM; MIC [5]: 4 µM and 8 µM
CC[C@H](C)[C@H](NC(=O)[C@H](CO)NC(=O)[C@H](CC(C)C)NC(=O)[C@H](Cc1ccccc1)NC(=O)CN)C(=O)N[C@@H](CC(C)C)C(=O)N[C@@H](CCCCN)C(=O)N[C@@H](CCCCN)C(=O)N[C@H](C(=O)N[C@@H](CC(C)C)C(=O)N[C@@H](CCCCN)C(=O)N[C@H](C(=O)N[C@@H](CCSC)C(=O)N[C@@H](C)C(=O)N[C@@H](Cc1cnc[nH]1)C(=O)N[C@@H](CCSC)C(=O)N[C@@H](CCCCN)C(N)=O)C(C)C)C(C)C [GFLSILKKVLKVMAHMK],,0.9,1.8,27.5,5,,,,,
CC[C@H](C)[C@H](NC(=O)[C@H](Cc1cnc[nH]1)NC(=O)[C@H](CCCCN)NC(=O)[C@H](CC(C)C)NC(=O)[C@H](CC(C)C)NC(=O)[C@H](CO)NC(=O)[C@H](CCCCN)NC(=O)[C@H](Cc1c[nH]c2ccccc12)NC(=O)[C@H](CCCCN)NC(=O)CN)C(=O)N[C@@H](CC(C)C)C(=O)N[C@@H](CCCCN)C(N)=O [GKWKSLLKHILK],,1.2,3.7,34.2,20,,,,,
CC[C@H](C)[C@H](NC(=O)[C@H](Cc1cnc[nH]1)NC(=O)[C@H](CCCCN)NC(=O)[C@H](CC(C)C)NC(=O)[C@H](Cc1c[nH]c2ccccc12)NC(=O)[C@H](CO)NC(=O)[C@H](CCSC)NC(=O)[C@H](Cc1c[nH]c2ccccc12)NC(=O)[C@H](CCCCN)NC(=O)CN)C(=O)N[C@@H](CC(C)C)C(=O)N[C@@H](CCCCN)C(N)=O [GKWMSWLKHILK],,1.5,3.9,13.5,10.1,,,,,
CC[C@H](C)[C@H](NC(=O)[C@H](Cc1cnc[nH]1)NC(=O)[C@H](CCCCN)NC(=O)[C@H](CC(C)C)NC(=O)[C@H](CC(C)C)NC(=O)[C@H](CO)NC(=O)[C@H](CCC(N)=O)NC(=O)[C@H](Cc1c[nH]c2ccccc12)NC(=O)[C@H](CCCCN)NC(=O)CN)C(=O)N[C@@H](CC(C)C)C(=O)N[C@@H](CCCCN)C(N)=O [GKWQSLLKHILK],,2.2,8,56.7,25,,,,,
CC[C@H](C)[C@H](NC(=O)[C@H](Cc1c[nH]c2ccccc12)NC(=O)[C@H](CCCCN)NC(=O)[C@H](CC(C)C)NC(=O)[C@@H](NC(=O)[C@H](CCCCN)NC(=O)CNC(=O)[C@@H](NC(=O)[C@H](CCCCN)NC(=O)[C@H](CCCCN)NC(=O)[C@H](CC(C)C)NC(=O)[C@@H](NC(=O)[C@H](CCCCN)NC(=O)[C@H](CCCN=C(N)N)NC(=O)[C@@H](NC(=O)[C@@H](NC(=O)[C@H](CCCCN)NC(=O)[C@H](CCCN=C(N)N)NC(=O)[C@H](CC(C)C)NC(=O)[C@H](CCCN=C(N)N)NC(=O)[C@H](CCCN=C(N)N)NC(=O)[C@H](Cc1ccccc1)NC(=O)[C@@H](NC(=O)CN)C(C)C)C(C)C)[C@@H](C)O)C(C)C)[C@@H](C)CC)C(C)C)C(N)=O [GVFRRLRKVTRKVLKKIGKVLKWI],,,,,,4,4,4,2,MIC [6]: 4 µM; MIC [9]: 4 µM
CC(C)[C@H](NC(=O)[C@H](CCCCN)NC(=O)[C@H](CCCCN)NC(=O)[C@@H](NC(=O)[C@@H](NC(=O)[C@H](CCCCN)NC(=O)[C@H](CCCCN)NC(=O)[C@@H](NC(=O)[C@@H](NC(=O)[C@H](CCCCN)NC(=O)[C@H](CCCCN)NC(=O)[C@@H](NC(=O)[C@@H](NC(=O)CN)C(C)C)C(C)C)C(C)C)C(C)C)C(C)C)C(C)C)C(N)=O [GVVKKVVKKVVKKV],,≥ 65,,,,,,,,MIC [1]: ≥ 125 µM
CC[C@H](C)[C@H](N)C(=O)N[C@@H](CCCN=C(N)N)C(=O)N[C@H](C(=O)N[C@@H](CCCN=C(N)N)C(=O)N[C@H](C(=O)N[C@@H](CCCN=C(N)N)C(=O)N1CCC[C@H]1C(=O)N[C@H](C(=O)N[C@@H](CCCN=C(N)N)C(=O)N[C@H](C(=O)N[C@@H](CCCN=C(N)N)C(=O)N[C@H](C(=O)N[C@@H](CCCN=C(N)N)C(=O)N1CCC[C@H]1C(=O)O)[C@@H](C)CC)[C@@H](C)CC)[C@@H](C)CC)[C@@H](C)CC)[C@@H](C)CC [IRIRIRPIRIRIRP],16 µM,,,,,8,16,64,> 128,MIC [11]: 8 µM; MIC [12]: 64 µM
CC[C@H](C)[C@H](N)C(=O)N[C@@H](CCCN=C(N)N)C(=O)N[C@H](C(=O)N[C@@H](CCCN=C(N)N)C(=O)N1CCC[C@H]1C(=O)N[C@H](C(=O)N[C@@H](CCCN=C(N)N)C(=O)N[C@H](C(=O)N[C@@H](CCCN=C(N)N)C(=O)N1CCC[C@H]1C(=O)O)[C@@H](C)CC)[C@@H](C)CC)[C@@H](C)CC [IRIRPIRIRP],> 128 µM,,,,,≥ 128,≥ 128,> 128,> 128,MIC [6]: > 128 µM; MIC [11]: > 128 µM; MIC [9]: > 128 µM; MIC [12]: > 128 µM
CC(C)C[C@H](NC(=O)[C@H](CCCN=C(N)N)NC(=O)[C@H](C)NC(=O)[C@H](C)NC(=O)[C@H](Cc1c[nH]c2ccccc12)NC(=O)CNC(=O)[C@H](CCCN=C(N)N)NC(=O)[C@@H](N)CCCN=C(N)N)C(=O)N[C@@H](Cc1ccccc1)C(=O)N[C@@H](C)C(=O)N[C@@H](C)C(=O)N[C@@H](Cc1ccccc1)C(=O)NCC(=O)N[C@@H](CCCN=C(N)N)C(=O)N[C@@H](CCCN=C(N)N)C(N)=O [RRGWAARLFAAFGRR],,,,,,,,> 30,,MIC (Acinetobacter baumannii): 4.8 µM; MIC [5]: 30 µM; MIC (Klebsiella pneumoniae): 1.2 µM
CC(C)C[C@H](NC(=O)[C@H](Cc1c[nH]c2ccccc12)NC(=O)[C@H](CCCCN)NC(=O)[C@H](CCCN=C(N)N)NC(=O)[C@@H](NC(=O)[C@H](Cc1c[nH]c2ccccc12)NC(=O)[C@H](CCCCN)NC(=O)[C@H](CCCN=C(N)N)NC(=O)[C@H](CC(C)C)NC(=O)[C@H](Cc1c[nH]c2ccccc12)NC(=O)[C@@H](N)CCCN=C(N)N)[C@@H](C)O)C(=O)N[C@@H](CCCCN)C(N)=O [RWLRKWTRKWLK],,,,,,4,16,16,8,MIC [6]: 4 µM; MIC [9]: 8 µM

# From DBAASP
